Measurements: US8431563B2 (priority 2010, dated 2013)

Assays:
[1] = molecular target: T1, GKRP (Glucokinase Regulatory Protein) with human His-hepatic GK (Homo sapiens, UniProt Q14397); assay: biochemical; conditions: 13C-glucose-6-phosphate formation; 280 nM GKRP (10×), 30 nM GK (5×); read-out: GK-GKRP EC50 (LC MS/MS-2)
T1 sequence (Q14397 1-625): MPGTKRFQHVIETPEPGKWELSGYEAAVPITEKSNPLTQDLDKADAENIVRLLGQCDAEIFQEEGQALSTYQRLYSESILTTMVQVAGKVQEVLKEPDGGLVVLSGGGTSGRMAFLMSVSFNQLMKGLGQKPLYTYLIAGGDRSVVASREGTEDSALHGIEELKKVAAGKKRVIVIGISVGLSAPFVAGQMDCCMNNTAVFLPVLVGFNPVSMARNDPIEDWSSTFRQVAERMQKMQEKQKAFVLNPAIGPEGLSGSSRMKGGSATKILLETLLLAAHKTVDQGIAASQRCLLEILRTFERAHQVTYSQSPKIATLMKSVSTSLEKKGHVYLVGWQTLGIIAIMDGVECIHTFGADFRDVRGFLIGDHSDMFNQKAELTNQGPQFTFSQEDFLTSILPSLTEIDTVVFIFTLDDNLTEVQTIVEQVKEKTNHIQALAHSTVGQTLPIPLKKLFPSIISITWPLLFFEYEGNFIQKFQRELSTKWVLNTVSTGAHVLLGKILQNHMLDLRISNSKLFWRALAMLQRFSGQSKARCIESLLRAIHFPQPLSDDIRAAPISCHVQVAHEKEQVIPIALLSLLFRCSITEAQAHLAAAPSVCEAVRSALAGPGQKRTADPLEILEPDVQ
How it was run: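 Human His-tagged hepatic GK (30 nM in the 5× working stock) in 50 mM Tris pH 7.5, 4 mM MgCl2, 6% DMSO with DTT, BSA and Brij-35. Enzyme was added after a 30 min step and reacted 30 min at room temperature. The reaction was stopped with acetonitrile and 13C-glucose-6-phosphate formed from 13C-glucose was quantified by LC MS/MS.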

[2] = molecular target: T2, interaction between glucokinase (GK) and glucokinase regulatory protein (GKRP) (Homo sapiens, UniProt Q14397); assay: biochemical; assay type: binding; conditions: avi-tagged GKRP, GK-fluorescein, AlphaScreen beads; read-out: GK-GKRP IC50 (Binding)
T2 sequence (Q14397 1-625): T1 sequence (Q14397 1-625)
How it was run: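 Avi-tagged human GKRP preincubated with compound for 20 min at room temperature, then 6 nM GK-fluorescein (concentration of added solution) introduced and incubated 2 h in the dark. Buffer: 20 mM Tris pH 7.5, 0.05% BSA, 1 mM DTT, 1 μM sorbitol-6-phosphate. Plate read on a fluorescence reader.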

| SMILES | EC50 [1] [nM] | IC50 [2] [nM] |
| --- | --- | --- |
| CC(O)(c1ccc(N2CCN(S(=O)(=O)c3cccs3)C[C@@H]2CNC2COC2)cc1)C(F)(F)F (mixture of isomers) [Example 206, 1,1,1-trifluoro-2-(4-((2S)-2-((3-oxetanylamino)methyl)-4-(2-thiophenylsulfonyl)-1-piperazinyl)phenyl)-2-propanol] | 343 | 248 |
| CC(O)(c1ccc(N2CCN(S(=O)(=O)c3cccs3)C[C@@H]2CN(C2COC2)S(C)(=O)=O)cc1)C(F)(F)F (mixture of isomers) [Example 207, N-3-oxetanyl-N-(((2R)-4-(2-thiophenylsulfonyl)-1-(4-(2,2,2-trifluoro-1-hydroxy-1-methylethyl)phenyl)-2-piperazinyl)methyl)methanesulfonamide] | 257 | 241 |
| CN(C[C@H]1CN(S(=O)(=O)c2cccs2)CCN1c1ccc(C(C)(O)C(F)(F)F)cc1)S(C)(=O)=O (mixture of isomers) [Example 208, N-methyl-N-(((2S)-4-(2-thiophenylsulfonyl)-1-(4-(2,2,2-trifluoro-1-hydroxy-1-methylethyl)phenyl)-2-piperazinyl)methyl)methane sulfonamide] | 234 | 112 |
| CC(C)N(C[C@H]1CN(S(=O)(=O)c2cccs2)CCN1c1ccc(C(C)(O)C(F)(F)F)cc1)S(=O)(=O)N(C)C (mixture of isomers) [Example 209, N,N-dimethyl-N′-(1-methylethyl)-N′-(((2R)-4-(2-thiophenylsulfonyl)-1-(4-(2,2,2-trifluoro-1-hydroxy-1-methylethyl)phenyl)-2-piperazinyl)methyl)sulfamide] | 23 | 7 |
| CC(C)CS(=O)(=O)NC[C@H]1CN(S(=O)(=O)c2cccs2)CCN1c1ccc(C(C)(O)C(F)(F)F)cc1 (mixture of isomers) [Example 210, 2-methyl-N-(((2S)-4-(2-thiophenylsulfonyl)-1-(4-(2,2,2-trifluoro-1-hydroxy-1-methylethyl)phenyl)-2-piperazinyl)methyl)-1-propanesulfonamide] | 249 | 507 |
| CC(C)CS(=O)(=O)N(C[C@H]1CN(S(=O)(=O)c2cccs2)CCN1c1ccc(C(C)(O)C(F)(F)F)cc1)c1ccccc1 (mixture of isomers) [Example 211, 2-methyl-N-phenyl-N-(((2R)-4-(2-thiophenylsulfonyl)-1-(4-(2,2,2-trifluoro-1-hydroxy-1-methylethyl)phenyl)-2-piperazinyl)methyl)-1-propanesulfonamide] | 20 | 6 |
| CC(C)CN(C[C@H]1CN(S(=O)(=O)c2cccs2)CCN1c1ccc(C(C)(O)C(F)(F)F)cc1)S(=O)(=O)CC(F)(F)F (mixture of isomers) [Example 214, 2,2,2-trifluoro-N-(2-methylpropyl)-N-(((2S)-4-(2-thiophenylsulfonyl)-1-(4-(2,2,2-trifluoro-1-hydroxy-1-methylethyl)phenyl)-2-piperazinyl)methyl) ethanesulfonamide] | 247 | 238 |
| CC(C)CN(C[C@H]1CN(S(=O)(=O)c2cccs2)CCN1c1ccc(C(C)(O)C(F)(F)F)cc1)S(=O)(=O)N(C)C (mixture of isomers) [Example 215, N,N-dimethyl-N′-(2-methylpropyl)-N′-(((2R)-4-(2-thiophenylsulfonyl)-1-(4-(2,2,2-trifluoro-1-hydroxy-1-methylethyl)phenyl)-2-piperazinyl)methyl)sulfamide] | 70 | 70 |
| CC1(CN(C[C@H]2CN(S(=O)(=O)c3cccs3)CCN2c2ccc(C(C)(O)C(F)(F)F)cc2)S(C)(=O)=O)COC1 (mixture of isomers) [Example 216, N-((3-methyl-3-oxetanyl)methyl)-N-(((2S)-4-(2-thiophenylsulfonyl)-1-(4-(2,2,2-trifluoro-1-hydroxy-1-methylethyl)phenyl)-2-piperazinyl)methyl)methanesulfonamide] | 194 | 172 |
| CN(C[C@H]1CN(S(=O)(=O)c2cccs2)CCN1c1ccc(C(C)(O)C(F)(F)F)cc1)S(=O)(=O)c1cccnc1 (mixture of isomers) [Example 217, N-methyl-N-(((2S)-4-(2-thiophenylsulfonyl)-1-(4-(2,2,2-trifluoro-1-hydroxy-1-methylethyl)phenyl)-2-piperazinyl)methyl)-3-pyridinesulfonamide] | 752 | 407 |
| CC(O)(c1ccc(N2CCN(S(=O)(=O)c3cccs3)C[C@@H]2CN(CC2CCC2)S(C)(=O)=O)cc1)C(F)(F)F (mixture of isomers) [Example 218, N-(cyclobutylmethyl)-N-(((2S)-4-(2-thiophenylsulfonyl)-1-(4-(2,2,2-trifluoro-1-hydroxy-1-methylethyl)phenyl)-2-piperazinyl)methyl)methanesulfonamide] | 17 | 24 |
| CC(O)(c1ccc(N2CCN(S(=O)(=O)c3cccs3)C[C@@H]2CSc2ccccc2F)cc1)C(F)(F)F (mixture of isomers) [Example 219, 1,1,1-trifluoro-2-(4-((2R)-2-(((2-fluorophenyl)sulfanyl)methyl)-4-(2-thiophenylsulfonyl)-1-piperazinyl)phenyl)-2-propanol] | 25 | 14 |
| CC(O)(c1ccc(N2CCN(S(=O)(=O)c3cccs3)C[C@@H]2CN(Cc2ccccc2)S(C)(=O)=O)cc1)C(F)(F)F (mixture of isomers) [Example 220, N-benzyl-N-(((2S)-4-(2-thiophenylsulfonyl)-1-(4-(2,2,2-trifluoro-1-hydroxy-1-methylethyl)phenyl)-2-piperazinyl)methyl)methanesulfonamide] | 15 | 3 |
| CC(O)(c1ccc(N2CCN(S(=O)(=O)c3cccs3)C[C@@H]2CN(Cc2cccnc2)S(C)(=O)=O)cc1)C(F)(F)F (mixture of isomers) [Example 221, N-(3-pyridinylmethyl)-N-(((2S)-4-(2-thiophenylsulfonyl)-1-(4-(2,2,2-trifluoro-1-hydroxy-1-methylethyl)phenyl)-2-piperazinyl)methyl)methanesulfonamide] | 41 | 13 |
| CC(C)CS(=O)(=O)N(C[C@H]1CN(S(=O)(=O)c2cccs2)CCN1c1ccc(C(C)(O)C(F)(F)F)cc1)c1cccnc1 (mixture of isomers) [Example 223, 2-methyl-N-3-pyridinyl-N-(((2R)-4-(2-thiophenylsulfonyl)-1-(4-(2,2,2-trifluoro-1-hydroxy-1-methylethyl)phenyl)-2-piperazinyl)methyl)-1-propanesulfonamide] | 86 | 35 |
| CC(=O)N(C[C@H]1CN(S(=O)(=O)c2cccs2)CCN1c1ccc(C(C)(O)C(F)(F)F)cc1)c1ccccc1 (mixture of isomers) [Example 224, N-phenyl-N-(((2S)-4-(2-thiophenylsulfonyl)-1-(4-(2,2,2-trifluoro-1-hydroxy-1-methylethyl)phenyl)-2-piperazinyl)methyl)acetamide] | 27 | 8 |
| CC1(C)C(=O)NC(=O)N1C[C@H]1CN(S(=O)(=O)c2cccs2)CCN1c1ccc(C(C)(O)C(F)(F)F)cc1 (mixture of isomers) [Example 228, 5,5-dimethyl-1-(((2S)-4-(2-thiophenylsulfonyl)-1-(4-(2,2,2-trifluoro-1-hydroxy-1-methylethyl)phenyl)-2-piperazinyl)methyl)-2,4-imidazolidinedione] | 312 | 151 |
